What was measured:
PKC isoenzyme γ = target: T1, PKC isoenzyme γ (Homo sapiens, UniProt P05129); experiment: Protein kinase C inhibition assay, PKC isoenzyme γ; assay type: biochemical; conditions: read-out: IC50 PKC γ
T1 construct: made in house; host or cells: baculovirus-insect cell expression system
Method: (§1) A protein kinase C (PKC) assay is designed to duplicate the in vivo conditions required for protein kinase C function. Therefore, pH, salt and cofactor concentrations are similar to physiologic levels. Either lysine rich histone H1 (H1) or Myelin basic protein (Mbp) are used in the assay as the phosphorylation acceptor-protein because they are readily available and serve as good substrates for protein kinase C. Enzyme was prepared from baculovirus-insect cell expression systems.
(§2) In the screening assay, phosphatidylserine (PS) and DAG were co-sonicated to form unilamellar and multilamellar vesicles. The concentration of lipids in the assay were suboptimal to maximize the detection potential of the assay for inhibitors or activators. Potential effector compounds were added to the assay in dimethylsulfoxide at four concentrations to give final inhibitor concentrations of 1, 10, 50, and 150 μM, respectively.
(§3) The assay was started with the addition of enzyme and stopped after 10 min by the addition of 25% trichloroacetic acid (TCA) and 1.0 mg/ml bovine serum albumin (BSA). The radioactive histone product was retained and washed on glass fiber filters that allow the unreacted P-ATP to pass through. The amount of phosphorylation was determined by measuring radioactivity with a scintillation counter. Controls were included in every assay to measure background activity in the absence of enzyme, activity in the absence of lipids, and the maximum enzyme activity with saturating levels of the activator lipids.
(§4) Results of the protein kinase C assay are shown in Table 4 in columns labeled α, βII, γ, δ, ε, and .zeta. which represent various PKC isoenzymes. Results are show as IC50, which is the concentration of test compound needed to inhibit 50% of the protein kinase C activity in controls.

PKC isoenzyme α = target: T2, PKC isoenzyme α (Homo sapiens, UniProt P17252); experiment: Protein kinase C inhibition assay, PKC isoenzyme α; assay type: biochemical; conditions: read-out: IC50 PKC α
T2 construct: made in house; host or cells: baculovirus-insect cell expression system
Method: as §1, §2, §3, §4

PKC isoenzyme δ = target: T3, PKC isoenzyme δ (Homo sapiens, UniProt Q05655); experiment: Protein kinase C inhibition assay, PKC isoenzyme δ; assay type: biochemical; conditions: read-out: IC50 PKC δ
T3 construct: made in house; host or cells: baculovirus-insect cell expression system
T3 sequence (Q05655 whole entry): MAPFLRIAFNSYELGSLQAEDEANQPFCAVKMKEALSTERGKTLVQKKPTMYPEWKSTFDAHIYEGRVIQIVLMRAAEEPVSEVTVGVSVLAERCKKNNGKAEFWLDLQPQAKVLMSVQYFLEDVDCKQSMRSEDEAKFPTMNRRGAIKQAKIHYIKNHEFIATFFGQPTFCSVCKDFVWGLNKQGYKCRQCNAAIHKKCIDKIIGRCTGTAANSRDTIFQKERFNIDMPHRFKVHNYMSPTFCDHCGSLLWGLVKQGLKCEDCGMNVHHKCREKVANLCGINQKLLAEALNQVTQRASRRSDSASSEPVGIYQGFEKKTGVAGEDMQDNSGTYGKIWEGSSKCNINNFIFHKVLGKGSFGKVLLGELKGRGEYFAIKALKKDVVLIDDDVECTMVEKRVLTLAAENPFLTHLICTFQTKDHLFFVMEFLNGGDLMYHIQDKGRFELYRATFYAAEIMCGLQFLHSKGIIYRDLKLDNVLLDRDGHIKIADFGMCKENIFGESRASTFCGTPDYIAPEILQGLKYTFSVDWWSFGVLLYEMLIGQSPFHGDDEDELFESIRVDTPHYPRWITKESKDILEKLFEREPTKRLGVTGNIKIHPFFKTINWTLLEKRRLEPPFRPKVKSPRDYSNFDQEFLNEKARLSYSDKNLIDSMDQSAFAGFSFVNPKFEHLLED
Method: as §1, §2, §3, §4

PKC isoenzyme βII = target: T4, PKC isoenzyme βII (Homo sapiens, UniProt P05771); experiment: Protein kinase C inhibition assay, PKC isoenzyme βII; assay type: biochemical; conditions: read-out: IC50 PKC βII
T4 construct: made in house; host or cells: baculovirus-insect cell expression system
T4 sequence (P05771 1-673 isoform P05771-2): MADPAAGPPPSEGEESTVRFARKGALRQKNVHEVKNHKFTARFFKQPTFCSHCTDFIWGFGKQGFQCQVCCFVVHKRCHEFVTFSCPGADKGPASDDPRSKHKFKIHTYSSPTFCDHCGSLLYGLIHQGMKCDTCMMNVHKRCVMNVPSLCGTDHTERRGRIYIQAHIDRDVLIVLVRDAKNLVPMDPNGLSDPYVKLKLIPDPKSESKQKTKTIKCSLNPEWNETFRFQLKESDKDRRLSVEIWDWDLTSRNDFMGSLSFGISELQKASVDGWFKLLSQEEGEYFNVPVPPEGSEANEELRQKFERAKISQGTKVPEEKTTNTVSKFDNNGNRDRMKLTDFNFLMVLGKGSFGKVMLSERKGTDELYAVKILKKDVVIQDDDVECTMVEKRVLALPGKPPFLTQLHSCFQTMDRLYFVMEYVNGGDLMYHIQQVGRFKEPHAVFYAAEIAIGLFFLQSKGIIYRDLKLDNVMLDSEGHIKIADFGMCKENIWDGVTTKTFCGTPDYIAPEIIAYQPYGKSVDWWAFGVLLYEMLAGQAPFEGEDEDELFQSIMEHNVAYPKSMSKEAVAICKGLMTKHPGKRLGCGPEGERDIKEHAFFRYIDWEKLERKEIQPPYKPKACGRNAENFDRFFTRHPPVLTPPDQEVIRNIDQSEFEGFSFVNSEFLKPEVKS
Method: as §1, §2, §3, §4

PKC isoenzyme ζ = target: T5, PKC isoenzyme ζ (Homo sapiens, UniProt Q05513); experiment: Protein kinase C inhibition assay, PKC isoenzyme ζ; assay type: biochemical; conditions: read-out: IC50 PKC .zeta.
T5 construct: made in house; host or cells: baculovirus-insect cell expression system
T5 sequence (Q05513 1-592): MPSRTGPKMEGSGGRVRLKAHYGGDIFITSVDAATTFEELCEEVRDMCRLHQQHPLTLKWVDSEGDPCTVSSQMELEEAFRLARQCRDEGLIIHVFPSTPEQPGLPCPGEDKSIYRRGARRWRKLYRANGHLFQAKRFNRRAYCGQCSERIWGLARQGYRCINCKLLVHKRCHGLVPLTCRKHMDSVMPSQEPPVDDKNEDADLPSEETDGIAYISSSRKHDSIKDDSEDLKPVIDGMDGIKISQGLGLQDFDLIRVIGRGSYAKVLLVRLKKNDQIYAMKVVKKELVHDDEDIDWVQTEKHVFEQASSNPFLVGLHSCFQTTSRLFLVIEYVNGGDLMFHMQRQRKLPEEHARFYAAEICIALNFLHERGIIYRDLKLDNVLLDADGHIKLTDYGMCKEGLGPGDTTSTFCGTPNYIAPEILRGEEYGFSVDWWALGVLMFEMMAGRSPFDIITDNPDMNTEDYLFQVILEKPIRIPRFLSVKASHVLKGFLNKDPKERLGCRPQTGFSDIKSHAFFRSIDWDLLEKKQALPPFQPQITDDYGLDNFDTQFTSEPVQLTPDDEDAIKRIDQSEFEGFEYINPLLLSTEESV
Method: as §1, §2, §3, §4

PKC isoenzyme ε = target: T6, PKC isoenzyme ε (Homo sapiens, UniProt Q02156); experiment: Protein kinase C inhibition assay, PKC isoenzyme ε; assay type: biochemical; conditions: read-out: IC50 PKC ε
T6 construct: made in house; host or cells: baculovirus-insect cell expression system
T6 sequence (Q02156 1-737): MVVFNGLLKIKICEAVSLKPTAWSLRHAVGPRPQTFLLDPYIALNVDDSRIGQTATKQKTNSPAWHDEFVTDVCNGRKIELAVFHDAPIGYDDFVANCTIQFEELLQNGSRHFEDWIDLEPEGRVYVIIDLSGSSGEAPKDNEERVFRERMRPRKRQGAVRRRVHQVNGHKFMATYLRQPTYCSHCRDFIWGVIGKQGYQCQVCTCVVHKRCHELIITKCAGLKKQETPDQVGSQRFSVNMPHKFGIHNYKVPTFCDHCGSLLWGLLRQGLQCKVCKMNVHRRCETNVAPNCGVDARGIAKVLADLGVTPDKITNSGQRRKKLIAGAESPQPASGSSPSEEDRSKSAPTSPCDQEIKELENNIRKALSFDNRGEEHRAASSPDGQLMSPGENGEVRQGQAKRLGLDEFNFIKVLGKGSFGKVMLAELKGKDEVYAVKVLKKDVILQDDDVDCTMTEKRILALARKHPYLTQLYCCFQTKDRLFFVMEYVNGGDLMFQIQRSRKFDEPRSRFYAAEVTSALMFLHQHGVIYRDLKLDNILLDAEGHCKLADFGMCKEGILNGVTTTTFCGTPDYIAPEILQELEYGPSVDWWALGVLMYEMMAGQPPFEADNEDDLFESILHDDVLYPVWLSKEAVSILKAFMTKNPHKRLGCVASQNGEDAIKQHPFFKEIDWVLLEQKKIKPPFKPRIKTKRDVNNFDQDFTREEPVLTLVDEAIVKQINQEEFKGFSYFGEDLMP
Method: as §1, §2, §3, §4

[1] = tested on: normal human epidermal keratinocyte (NHEK) cells; experiment: Human Keratinocyte Inhibition (3H TdR Assay); assay type: cell-based; conditions: 24 h incubation, 3H-thymidine
Method: Proliferating normal human epidermal keratinocyte (NHEK) cells were obtained in the second passage and grown in keratinocyte growth medium, KGM (Clonetics, Inc.) at 37° C., 5% CO2. The cells were trypsinized (0.25%), centrifuged, counted with a hemocytometer, and seeded at a concentration of 5000 cells in 100 μl well in a 96-well microtiter plate.
After the cells were allowed to attach to the microtiter plate overnight, test agents were titrated to determine the dose response. This was done by adding each test agent dilution in quadruplicate to the plate at 2× final concentration in 100 μl to bring the total volume of each well to 200 μl. Culture media with no test agent added was used as a normal control. Duplicate sets of plates were established.
After twenty-four hours of incubation with test compounds 37° C. and 5% CO2, […] of 0.01 mCi/ml tritiated thymidine (New England Nuclear) was added to each well and allowed to incubate for another 4 hours under the same conditions.
Supernatant was aspirated and discarded and […] of 0.05% trypsin (Gibco) was added to each cell. Cells were checked microscopically to determine detachment from surfaces and then harvested onto glass filters. The filters were then placed in vials to which scintillant was added and counted for one minute each in a scintillation counter.
Determine mean cpm of wells containing test agent (n=4) or KGM control (n=16). Calculate % of control by the formula: [formula]
The IC50, or connection necessary to inhibit 50% of control, of each test agent was determined by plotting % control vs log concentration for each dilution and then linear forecasting the 50% control value onto the X axis on a Quatro Pro computer program. Only regression values with a correlation coefficient greater than 0.9 were considered acceptable.

[2] = target: cAMP dependent protein kinase (PKA); experiment: cAMP Dependent Protein Kinase (PKA) Assay; assay type: biochemical; conditions: for IC50: catalytic subunit of PKA
Method: Compounds found to be inhibitors of protein kinase C were tested for inhibitory activity against cAMP dependent protein kinase (PKA). This enzyme, like protein kinase C, plays an important role in cell-cell communication and is activated by a second messenger, cAMP. Secondary screening against PKA is useful for ascertaining the selectivity of the compounds of the invention.
The catalytic subunit of PKA (Sigma Chemical Company, St. Louis, Mo.) was mixed with buffer before addition of the inhibitor in dimethylsulfoxide (DMSO). Potential inhibitor compounds were added to the assay in dimethylsulfoxide at two concentrations to give final inhibitor concentrations of 30 and 150 μM, respectively. The assay was started by the addition of ^32 P-ATP and the reaction was allowed to proceed for 10 min before stopping with 25% trichloroacetic acid (TCA) and 1.0 mg/ml bovine serum albumin (BSA). Phosphorylated protein was then isolated by filtration and the radioactivity was counted by a beta scintillation counter.

human neutrophils = experiment: Neutrophil Superoxide Anion (O2) Release Assay, PMA-stimulated; assay type: cell-based; conditions: Homo sapiens, Neutrophil, PMA-stimulated human neutrophils; read-out: Neutrophil Superoxide Release IC50
Excerpt: Phorbol-12,13-myristate acetate (PMA) stimulates O2 production in human neutrophils which in turn reduces cytochrome C. Reducing cytochrome C increases absorbance and the change in optical density (OD) is proportional to the amount of O2 produced by PMA stimulation. Inhibition is expressed as an IC50 value and is the amount of test compound that will inhibit fifty percent of the PMA-stimulated respiratory outburst, i.e. O2^31 production (Lherer et al. (1981) J. Clinical lnvest. 68:1314; Roberts et al. (1982) J. Immunological Methods 49:193).
Human donor blood in 0.38% Sodium Citrate was centrifuged for 10 minutes at 160 ×g at room temperature. Platelet-rich plasma was removed leaving the buffy coat and the red cell-enriched fraction. Saline with 0.38% Sodium Citrate was added to this fraction up to the original blood volume. The enriched blood sample was diluted 1:1 (v:v) with 3% dextran T500 (Pharmacia) in normal saline and placed in a 60 cc syringe, inverted over a beaker and allowed to settle 30 minutes at room temperature.
Leukocyte-enriched plasma was removed from the syringe, placed into 50 ml polypropylene conical centrifuge tubes and underlaid with 15-20 ml Lymphocyte Separation Medium (LSM Organon Technica). The tubes were centrifuged for 40 minutes at 500×g at room temperature. The plasma, buffy coat and LSM were aspirated off the pellets which contained red blood cells and neutrophils.
The pellets were vortexed and 10 ml ice-cold 0.2% NaCl was added to lyse the red blood cells while vortexing again for 10 seconds. Ice-cold 1.6% NaCl was added while vortexing for 10 seconds. The cells were combined from multiple tubes, centrifuged 10 min at 400×g at 4° C. This red cell lysis was repeated and the resulting neutrophil pellet was washed once in Reaction HBSS (GIBCO, HBSS with Ca^++ and Mg^++,.238% HEPES, 0.1% dextrose, 0.1% RIA grade bovine serum albumin, PH 7.2). The cells were resuspended in 1/5 the original blood volume with Reaction HBSS, counted and adjusted to 4.0×10^6 cells/ml at 4° C.
Duplicate samples of neutrophils were tested in 12×75 mm polypropylene tubes containing 0.25 ml of the neutrophil suspension. Cytochrome C mix (0.25 ml, 6.0 mg/ml cytochrome C type IV (Sigma) plus 1200 U/ml bovine liver catalase (Sigma) in Reaction HBSS described above) was added. PMA was added at 2×the final concentration in 0.5 ml of Reaction HBSS. PMA final test concentration were 0.0, 0.3, 9.0, 27.0, and 81.0 ng/ml. The tubes were vortexed and incubated for 10 minutes at 37° C. with shaking. After chilling for 5 minutes at 4° C. and centrifuging for 10 minutes at 4° C., 550×g, 0.5 ml of supernatant was removed from each tube. Normal saline (0.5 ml) was added to each 0.5 ml sample of supernatant and the absorbance of each sample was read at 550 nm on a spectrophotometer (Shimadzu). The PMA concentration which gives nearly maximal stimulation of superoxide release was determined.
The test samples of neutrophils were prepared as in the PMA dose response through addition of cytochrome C mix. Then 0.4 ml of Reaction HBSS as a control or test agent at 2.5×final test concentration was added and the tubes were vortexed and incubated for 30 minutes at 37° C. with shaking. PMA (0.1 ml) was added at a 10× concentration of the final concentration determined above. The samples were incubated for 10 minutes at 37° C. with shaking, chilled for 5 minutes at 4° C., and then centrifuged for 5 minutes at 550×g at 4° C. The supernatant (0.5 ml) was diluted with 0.5 ml normal saline as above and the absorbance was then determined at 550 nm. The percent change was calculated as follows: [formula] D-sphingosine (Sigma) used as reference standard.
Human neutrophils were first isolated according to Lherer et al. ((1981) J. Clinical Invest. 68:1314) and then tested for stimulation of superoxide anion release with phorbol--12,13-myristate acetate (PMA) in a dose-dependent manner. […]

Row | SMILES | IC50 (PKC isoenzyme γ) [µM] | IC50 (PKC isoenzyme α) [µM] | IC50 (PKC isoenzyme δ) [µM] | IC50 (PKC isoenzyme βII) [µM] | IC50 (PKC isoenzyme ζ) [µM] | IC50 (PKC isoenzyme ε) [µM] | IC50 ([1]; Homo sapiens) [µM] | IC50 [2] [µM] | IC50 (human neutrophils) [µM] | IC50 [1] [µM] | effect on PKA activity ([2]; result in words)
1 | CCCCCCCCCCCCCCCCNS(=O)(=O)c1ccc(N=C2C=C(Nc3ccc(S(=O)(=O)NCCCCCCCCCCCCCCCC)cc3)C(=O)c3ccccc32)cc1 [Compound 6o] | 94 | 100 | 102 | 99 | > 150 | – | – | – | – | – | –
2 | N=C(N)NS(=O)(=O)c1ccc(N=C2C=C(Nc3ccc(S(=O)(=O)NC(=N)N)cc3)C(=O)c3ccccc32)cc1 [Compound 3ab] | 76 | 125 | > 150 | > 150 | > 150 | > 150 | – | – | – | – | –
3 | Cc1cc(C)nc(NS(=O)(=O)c2ccc(N=C3C=C(Nc4ccc(S(=O)(=O)Nc5cc(C)cc(C)n5)cc4)C(=O)c4ccccc43)cc2)c1 [Compound 3aj] | 88 | 90 | > 150 | > 150 | > 150 | > 150 | – | – | – | – | –
4 | O=C1C(Nc2ccc(S(=O)(=O)Nc3ncccn3)cc2)=CC(=Nc2ccc(S(=O)(=O)Nc3ncccn3)cc2)c2ccccc21 [Compound 3k] | 24 | 113 | > 150 | > 150 | 37 | > 150 | 1.8 | 111 | – | – | –
5 | O=C1C(Nc2ccc(S(=O)(=O)Nc3ncccn3)cc2)=CC(=Nc2ccc(S(=O)(=O)Nc3ncccn3)cc2)c2ccccc21 [Compound 6k] | 16 | 116 | – | – | 35 | – | – | – | 6.83 | – | –
6 | Cc1noc(NS(=O)(=O)c2ccc(N=C3C=C(Nc4ccc(S(=O)(=O)Nc5onc(C)c5C)cc4)C(=O)c4ccccc43)cc2)c1C [Compound 6b] | 29 | 35 | 39 | 50 | – | > 150 | – | > 150 | – | 16.7 | did not effect on PKA activity

— patent publication US5292737A, “N,N'-bis(sulfonamido)-2-amino-4-iminonaphthalen-1-ones and N,N'-bis(amido)-2-amino-4-iminonaphthalen-1-ones” (Sphinx Pharmaceuticals Corporation, priority 1992, dated 1994)
